Measured values taken from patent US20240050564A1, “COMBINATION THERAPY USING AN ANTI-FUCOSYL-GM1 ANTIBODY” (BRISTOL-MYERS SQUIBB COMPANY, priority 2021, published 2024).

Experiments:
[1] = tested on: small cell lung cancer (SCLC); settings: nivolumab monotherapy, 147 patients; cited from earlier work
DMS79 cells [2] = test: DMS-79 SCLC tumor model in mice, anti-fucosyl-GM1 and cisplatin (Example 1); assay type: in vivo, male C.B17 SCID mice; settings: BMS-986012 0.3 mg/kg i.p. days 7, 10, 13, 17, 21; cisplatin 3 mg/kg days 7, 14, 21, 28 (alone with isotype control antibody)
Method: Median tumor volumes are presented for groups of 8 mice at each data point. See Example 1.
(§1) A combination therapy method of the present invention involving antibody to fucosyl-GM1 and cisplatin was tested in the DMS-79 SCLC tumor model in mice ([…] mice per group). Bepler et al. (1989) Oncogene 4:45; Pettengill (1980) Cancer 45: 906; Pettengill et al. (1980) Exp. Cell Biol. 48:279. Briefly, DMS79 cells were cultured in RPMI with 10% fetal bovine serum (FBS), 2 mM L-glutamine, […] sodium bicarbonate, 4.5 g/L glucose, 10 mM HEPES, and 10 μM NaPyr prior to subcutaneous implantation in the right flanks of male C.B17 SCID mice (5 million cells in 0.1 mL phosphate-buffered saline (PBS) and 0.1 mL […]® gelatinous protein mixture per flank). When tumors reached a mean or median size of 80-155 mm^3 estimated by L×W×H/2 using a digital calipers, mice were randomized into treatment groups (N=8 mice per group).
Anti-fucosyl-GM1 antibody BMS-986012 was administered at 0.3 mg/kg i.p. to mice on days 7, 10, 13, 17 and 21 post implantation, and cisplatin was administered at 3 mg/kg on days 7, 14, 21 and 28. Because fucosyl-GM1 is a ganglioside rather than a protein, and is the same in mice as in humans, there was no need to use a “mouse surrogate” for mouse studies. Cisplatin was administered in combination with BMS-986012 and with an isotype control antibody at 3 mg/kg as a control. […]

[3] = Binding of BMS-986012 to fucosyl-GM1
From the text: (§2) BMS-986012 is a first-in-class fully human monoclonal antibody (mAb) that specifically binds to the fucosyl-GM1 ganglioside. […] Because fucosyl-GM1 is preferentially found on the surface of lung cancer cells, BMS-986012 is particularly well suited to treating lung cancer, such as small cell lung cancer (SCLC).

[4] = Binding to closely related molecule GM1
From the text: as §2

DMS79 cells [5] = test: DMS-79 SCLC tumor model in mice, anti-fucosyl-GM1 and etoposide (Example 2); assay type: in vivo; settings: BMS-986012 3 mg/kg i.p. days 7, 11, 15, 18, 21; etoposide 15 mg/kg i.p. days 7, 9, 11 (alone with isotype control antibody)
Method: Median tumor volumes are presented for groups of 8 mice at each data point. See Example 2.
as §1
A combination therapy method of the present invention involving antibody to fucosyl-GM1 and etoposide was tested in the DMS-79 SCLC tumor model in mice (N=9 mice per group), essentially as described in Example 1. Anti-fucosyl-GM1 antibody BMS-986012 was administered at 3 mg/kg i.p. to mice on days 7, 11, 15, 18 and 21 post-implantation, and etoposide was administered at 15 mg/kg i.p. on days 7, 9 and 11. […]

Fc receptors = settings: non-fucosylated Fc domain; cited from earlier work
[6] = non-fucosylated, compared to an antibody with typical mammalian glycosylation; cited from earlier work

nivolumab: anti-PD-1 mAb comprising heavy chains of SEQ ID NO: 13 and light chains of SEQ ID NO: 14
published ORR [1]: 12%
published disease control rate [1]: 29%

N.N.[Cl][Pt][Cl] [cisplatin, reference compound]
tumor growth (median tumor volume, FIG. 1) (DMS79 cells [2]): effective as monotherapy to reduce tumor growth

BMS-986012: anti-fucosyl-GM1 mAb comprising heavy chains of SEQ ID NO: 3 and light chains of SEQ ID NO: 4
binding to fucosyl-GM1 [3]: high-affinity and dose-dependent saturable binding
antigen-specific binding to GM1 [4]: no detectable antigen-specific binding
tumor growth (median tumor volume, FIG. 1) (DMS79 cells [2]): effective as monotherapy to reduce tumor growth
tumor growth (median tumor volume, FIG. 2) (DMS79 cells [5]): somewhat effective as monotherapy to reduce tumor growth
affinity for Fc receptors (Fc receptors): higher affinity
antibody-dependent cellular cytotoxicity (ADCC) [6]: enhanced

COc1cc([C@@H]2c3cc4c(cc3[C@@H](O[C@@H]3O[C@@H]5CO[C@@H](C)O[C@H]5[C@H](O)[C@H]3O)[C@H]3COC(=O)[C@H]23)OCO4)cc(OC)c1O [etoposide, reference compound]
tumor growth (median tumor volume, FIG. 2) (DMS79 cells [5]): somewhat effective as monotherapy to reduce tumor growth
